Conditions: 293.15 K, Liquid, Vibrating tube method

CCCCCCCCCC [decane]
Conditions	mass density [kg/m3]
12325 kPa	739.1
12342 kPa	739.1
12359 kPa	739
12381 kPa	739
12401 kPa	739.1
12417 kPa	739
12437 kPa	739.1
12454 kPa	739
12476 kPa	739.3
12499 kPa	739.2
12516 kPa	739.1
12536 kPa	739.1
12556 kPa	739.1
12576 kPa	739.1
12593 kPa	739.2
12610 kPa	739.3
12633 kPa	739.3
12653 kPa	739.2
12677 kPa	739.2
12703 kPa	739.2
12720 kPa	739.2
12744 kPa	739.3
12759 kPa	739.2
12785 kPa	739.3
12809 kPa	739.3
12827 kPa	739.3
12851 kPa	739.3
12872 kPa	739.5
12896 kPa	739.3
12917 kPa	739.5
12939 kPa	739.5
12957 kPa	739.4
12978 kPa	739.4
12999 kPa	739.5
13018 kPa	739.5
13039 kPa	739.5
13058 kPa	739.5
13080 kPa	739.6
13098 kPa	739.5
13127 kPa	739.6
13152 kPa	739.6
13172 kPa	739.7
13197 kPa	739.5
13216 kPa	739.6
13235 kPa	739.6
13251 kPa	739.7
13274 kPa	739.7
13290 kPa	739.7
13309 kPa	739.7
13329 kPa	739.6
13359 kPa	739.6
13385 kPa	739.8
13408 kPa	739.7
13435 kPa	739.7
13459 kPa	739.8
13479 kPa	739.8
13501 kPa	740
13525 kPa	739.9
13548 kPa	739.8
13569 kPa	740
13586 kPa	739.9
13609 kPa	739.9
13626 kPa	739.9
13644 kPa	739.8
13667 kPa	740
13686 kPa	740
13701 kPa	740
13722 kPa	739.9
13745 kPa	740
13766 kPa	739.9
13784 kPa	739.9
13802 kPa	740
13820 kPa	740
13844 kPa	740
13862 kPa	740.1
13881 kPa	739.9
13903 kPa	740.2
13927 kPa	740.1
13943 kPa	740.1
13967 kPa	740.3
13989 kPa	740.1
14008 kPa	740.2
14024 kPa	740.3
14044 kPa	740.1
14061 kPa	740.2
14081 kPa	740.3
14098 kPa	740.3
14121 kPa	740.2
14139 kPa	740.3
14151 kPa	740.3
14167 kPa	740.2
14181 kPa	740.4
14194 kPa	740.3
14205 kPa	740.2
14220 kPa	740.4
14232 kPa	740.3
14245 kPa	740.4
14257 kPa	740.4
14269 kPa	740.2
14281 kPa	740.3
14297 kPa	740.4
14314 kPa	740.4
14325 kPa	740.4
14339 kPa	740.4
14352 kPa	740.4
14363 kPa	740.4
14376 kPa	740.4
14389 kPa	740.4
14404 kPa	740.4
14418 kPa	740.4
14427 kPa	740.5
14443 kPa	740.4
14458 kPa	740.5
14471 kPa	740.4
14483 kPa	740.6
14500 kPa	740.6
14517 kPa	740.5
14529 kPa	740.4
14542 kPa	740.6
14554 kPa	740.4
14566 kPa	740.6
14580 kPa	740.6
14592 kPa	740.5
14605 kPa	740.5
14617 kPa	740.6
14637 kPa	740.6
14650 kPa	740.7
14664 kPa	740.6
14676 kPa	740.7
14691 kPa	740.6
14706 kPa	740.7
14717 kPa	740.7
14735 kPa	740.6
14753 kPa	740.7
14765 kPa	740.7
14779 kPa	740.7

Reference: the NIST ThermoML archive (doi:10.1021/je800110r)
